The source of these data is patent US9896440B2, “Aryl substituted heterocyclyl sulfones” (GRÜNENTHAL GMBH, priority 2014, dated 2018).

This test concerns the target T1, Human CaV2.2 channels (Homo sapiens, UniProt Q00975).
T1 construct: expressed in transfected cells; Kir2.3 also stably co-expressed
The test is described as follows: Fluorescence assay for CaV2.2 channels using potassium depolarization to induce channel opening (FLIPR, Fluo 4). Type of test: cell-based. Conditions: 30 mM KCl assay buffer (inactivated channel state), HEK293 cells. Put shortly:
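HEK293 cells stably co-expressing human CaV2.2 with α2δ and β subunits plus Kir2.3, Fluo-4 loaded; compounds preincubated 15 min at 25 °C in 1 mM or 30 mM KCl buffer (inactivated state), pH 7.4. Depolarized by KCl addition; baseline-normalized peak fluorescence (ex 480/em 535 nm) gave inhibition.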

T1 sequence (Q00975 whole entry): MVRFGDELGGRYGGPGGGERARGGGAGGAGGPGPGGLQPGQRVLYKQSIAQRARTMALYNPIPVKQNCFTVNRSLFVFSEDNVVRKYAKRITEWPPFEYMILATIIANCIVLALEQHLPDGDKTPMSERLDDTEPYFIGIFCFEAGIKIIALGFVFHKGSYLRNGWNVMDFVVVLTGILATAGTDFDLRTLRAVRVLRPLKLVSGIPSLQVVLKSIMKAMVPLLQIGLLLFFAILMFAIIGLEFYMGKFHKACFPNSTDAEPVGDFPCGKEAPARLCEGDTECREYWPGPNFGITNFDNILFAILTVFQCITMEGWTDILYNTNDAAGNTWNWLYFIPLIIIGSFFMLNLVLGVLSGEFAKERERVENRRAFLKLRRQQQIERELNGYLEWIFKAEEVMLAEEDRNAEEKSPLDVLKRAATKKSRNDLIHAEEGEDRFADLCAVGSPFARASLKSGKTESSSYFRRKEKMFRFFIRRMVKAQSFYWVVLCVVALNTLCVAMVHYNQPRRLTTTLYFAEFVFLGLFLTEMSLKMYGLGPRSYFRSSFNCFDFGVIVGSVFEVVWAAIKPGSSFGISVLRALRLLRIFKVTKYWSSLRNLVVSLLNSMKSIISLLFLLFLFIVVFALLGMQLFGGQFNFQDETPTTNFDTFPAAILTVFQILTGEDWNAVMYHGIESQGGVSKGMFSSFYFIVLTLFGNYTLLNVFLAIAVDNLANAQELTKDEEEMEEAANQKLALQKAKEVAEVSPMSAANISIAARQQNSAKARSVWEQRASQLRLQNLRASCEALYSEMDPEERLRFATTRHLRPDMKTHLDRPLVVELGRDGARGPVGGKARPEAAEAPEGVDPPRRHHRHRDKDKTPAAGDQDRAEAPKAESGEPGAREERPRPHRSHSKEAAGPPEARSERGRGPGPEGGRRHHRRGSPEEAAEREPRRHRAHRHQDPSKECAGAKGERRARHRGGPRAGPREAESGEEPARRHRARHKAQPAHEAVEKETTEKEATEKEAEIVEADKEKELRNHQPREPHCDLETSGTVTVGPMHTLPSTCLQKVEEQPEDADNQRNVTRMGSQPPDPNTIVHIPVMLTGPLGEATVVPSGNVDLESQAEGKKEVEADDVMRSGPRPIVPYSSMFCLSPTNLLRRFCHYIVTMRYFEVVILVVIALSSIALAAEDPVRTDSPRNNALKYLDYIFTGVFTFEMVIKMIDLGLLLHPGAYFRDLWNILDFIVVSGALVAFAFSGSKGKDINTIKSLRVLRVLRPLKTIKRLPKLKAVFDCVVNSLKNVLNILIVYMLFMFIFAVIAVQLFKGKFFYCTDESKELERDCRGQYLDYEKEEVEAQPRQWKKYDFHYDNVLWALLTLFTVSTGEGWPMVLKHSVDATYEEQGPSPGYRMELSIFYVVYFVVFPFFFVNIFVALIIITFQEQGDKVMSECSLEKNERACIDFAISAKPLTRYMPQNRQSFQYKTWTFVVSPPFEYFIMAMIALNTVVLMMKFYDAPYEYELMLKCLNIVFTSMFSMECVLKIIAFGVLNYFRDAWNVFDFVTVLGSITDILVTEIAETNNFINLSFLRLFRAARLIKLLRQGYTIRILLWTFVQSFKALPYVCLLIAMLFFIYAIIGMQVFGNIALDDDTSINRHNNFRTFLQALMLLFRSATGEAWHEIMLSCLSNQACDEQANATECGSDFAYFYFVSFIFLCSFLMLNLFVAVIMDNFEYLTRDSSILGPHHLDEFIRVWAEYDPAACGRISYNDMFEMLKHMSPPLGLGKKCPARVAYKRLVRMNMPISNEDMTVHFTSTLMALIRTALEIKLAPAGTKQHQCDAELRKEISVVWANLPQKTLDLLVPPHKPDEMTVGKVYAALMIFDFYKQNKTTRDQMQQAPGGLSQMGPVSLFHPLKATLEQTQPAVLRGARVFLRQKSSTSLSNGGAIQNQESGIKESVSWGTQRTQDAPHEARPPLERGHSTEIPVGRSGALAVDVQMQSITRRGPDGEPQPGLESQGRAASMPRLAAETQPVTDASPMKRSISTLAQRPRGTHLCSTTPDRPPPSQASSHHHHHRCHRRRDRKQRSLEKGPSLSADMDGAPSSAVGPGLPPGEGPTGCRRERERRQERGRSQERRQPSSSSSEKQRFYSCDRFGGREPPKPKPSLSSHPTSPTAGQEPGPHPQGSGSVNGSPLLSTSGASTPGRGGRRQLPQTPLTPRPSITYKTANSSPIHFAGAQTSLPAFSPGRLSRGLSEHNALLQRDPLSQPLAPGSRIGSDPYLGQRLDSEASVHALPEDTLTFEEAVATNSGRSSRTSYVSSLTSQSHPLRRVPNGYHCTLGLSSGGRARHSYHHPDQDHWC

With `CC1(S(=O)(=O)c2cc(F)cc(C(F)(F)F)c2)CCOC(c2ccc(S(C)(=O)=O)cc2F)C1` (centres unmarked) [SC-518, 2-(2-Fluoro-4-methylsulfonyl-phenyl)-4-[[3-fluoro-5-(trifluoromethyl)-phenyl]sulfonyl]-4-methyl-tetrahydro-pyran], the inhibition at 3 µM (HEK293, 3 μM test compound, read-out: Activity Category: %-Inhib (CaV2.2) @3 μM @30 mM KCl) was in the range of 75 to 95%.
Consider `CC1(S(=O)(=O)c2cc(F)cc(C(F)(F)F)c2)CCOC(c2ccc(S(C)(=O)=O)cc2F)C1` (centres unmarked) [SC-519, 2-(2-Fluoro-4-methylsulfonyl-phenyl)-4-[[3-fluoro-5-(trifluoromethyl)-phenyl]sulfonyl]-4-methyl-tetrahydro-pyran], for which the “Activity Category: %-Inhib (CaV2.2) @3 μM @30 mM KCl” value (3 μM test compound) is listed as “A (%-Inhibition >95%)”.
